According to paper PMC11507441, “Oilseed Cakes: A Promising Source of Antioxidant, and Anti-Inflammatory Agents—Insights from Lactuca sativa” (International Journal of Molecular Sciences, 2024):
In brackets after ≈: the same amount, converted by molar mass.

Columns and labels:
GPx = GPx activity in rat paw tissue homogenate (carrageenan model); assay type: in vivo; conditions: for GPx (U/gm Tissue): paw tissue 5 h after carrageenan
Procedure: (§1) The levels of inflammatory mediators (IL-1β, TNF-α, and PGE2) in rat paw tissue homogenate were measured using the following Kits: Rat TNF-α (Tumor Necrosis Factor Alpha) ELISA Kit from Elabscience® Company, Houston, TX, USA, Interleukin 1 Beta (IL-1b) Organism Species: Rattus norvegicus (Rat) from Cloud Clone Crop Company and Rat PGE2 (Prostaglandin E2) ELISA Kit from Fine test® company Hubei, China. In addition, oxidative stress parameters in rat paw tissue homogenate were measured using superoxide dismutase, glutathione peroxidase, and catalase Kits from the Biodiagnostic company, Birmingham, UK.
(§2) Rats were slaughtered, and their paw tissues were gathered and weighed five hours after the carrageenan was administered. The tissues underwent processing after being fixed in 10% formalin. Rat paw tissue was homogenized, and its oxidative stress indices (SOD, CAT, and GPx) as well as the levels of inflammatory mediators (IL-1β, TNF-α, and PGE2) were measured.

[1] = system: SARS-CoV-2 main protease Mpro or 3CLpro; conditions: cited from earlier work
IL-1β = IL-1β in rat paw tissue homogenate (carrageenan model); assay type: in vivo; conditions: doses of 20 and 40 mg/kg; compared to the vehicle control group
Procedure: as §1, §2

[2] = Cytotoxic activity (MTT assay), normal cells; assay type: cell-based; conditions: human, WI-38 normal lung fibroblast cells; MTT; normal cells; read-out: In Vitro Cytotoxicity IC50 (µg/mL) WI-38
Procedure: The HPLC was performed in the Institute for Plant Biology, TU Braunschweig, using a Young Lin quaternary pump, vacuum degasser, column oven (40 °C), diode array detector (YL9160 PDA), and a Midas Spark Holland autosampler. UV spectra (λ max) were measured in the central laboratory of the Faculty of Pharmaceutical Science at Mansoura University using spectroscopic methanol with an ultraviolet-visible spectrophotometer (Shimadzu 1601 PC, version TCC-240A, Kyoto, Japan). The NMR unit of Mansoura University’s Faculty of Pharmacy obtained nuclear magnetic resonance spectra (^1H-NMR, ^13C-NMR, DEPT-Q, APT, HSQC, and HMBC) using a Bruker DRX 600 NMR spectrometer (600 and 150 MHz for ^1H and ^13C-NMR, respectively) and with the Bruker Corporation Avance III 400 spectrometer, which measures ^1H and ^13C-NMR at 400 and 100 MHz, respectively. The types of solvents that are used are CDCl3, CD3OD, and DMSO-d6. For normal phase chromatography, silica gel G 60–230 mesh (Merck, Darmstadt, Germany) was packed using a wet or dry method in the specified solvent. The purchase of Normal Human lung fibroblast (WI-38), hepatic cancer cell lines (HePG-2), and mammary gland (MCF-7) cell lines from ATCC was made possible by the Holding firm for biological goods and vaccines (VACSERA), which is based in Cairo, Egypt.
Using the MTT test, the inhibitory effects of substances on cell growth were ascertained using the cell lines compared to normal lung fibroblast cells (WI-38). The selectivity index was calculated via the Selectivity index (SI) equation: SI equals IC50 normal/IC50 cancer.

TNF-α = TNF-α in rat paw tissue homogenate (carrageenan model); assay type: in vivo; conditions: doses of 20 and 40 mg/kg; compared to the vehicle control group
Procedure: as §1, §2

[3] = system: carrageenan-induced paw oedema; assay: Carrageenan-induced paw oedema; assay type: in vivo; conditions: rat
Procedure: Adult albino rats 180-220 g of both sexes used in the investigation were acquired from the Mansoura University Faculty of Pharmacy's Animal House. Standard laboratory diet and water were provided, and they were housed in cages maintained at a constant temperature of 22 ± 2 °C. The Animal Care and Use Committee (MU-ACUC) of Mansoura University, Egypt, has approved all procedures involving animals with code number: […] Throughout the experiment, medications and extracts were given orally in doses of 1 mL/100 g of the rat's body weight after being solubilized in carboxymethyl cellulose (CMC) in order to create a suspension formula. In this test, rats were divided into six groups, with each group containing 5 animals. Group-1: […] Group-2: Positive control (carrageenan-induced oedema, Sigma (St. Louis, MO, USA)) without any treatment. […] Group-4: […] extract of Lactuca sativa was administered at a 2 g/kg dose. Group-5: Compound (1) is administered at a dose of 20 mg/kg. Group-6: Compound (1) at a dose of 40 mg/kg. Group-7: Combination of standard and compound (1) at doses of (10 + 20) mg/kg, respectively. […] Using a digital vernier calliper, the swelling of the paw that had been injected with carrageenan was measured prior to injection as well as 1, 2, 3, 4, and 5 h following the treatment's induction. The percentage inhibition of oedema in the test animals treated with the extract compared to the carrageenan control group was used to calculate the anti-inflammatory activity. The formula […] was used to calculate the percentage inhibition of inflammation, where “dt” represents the difference in paw volume in the drug-treated group and “dc” represents the difference in paw volume relative to the control group. Moreover, “I” represents the suppression of inflammation.

S. aureus = assay: Antimicrobial screening, zone of inhibition; assay type: cell-based; conditions: Table 1
Procedure: The procedure was performed according to […] et al.. A comparison of the extract's zone of inhibition to that of a reference antibiotic's activity index was determined using the following equation:Activity index = (the inhibition zone of extract/the inhibition zone of the standard) × 100

SOD = SOD activity in rat paw tissue homogenate (carrageenan model); assay type: in vivo; conditions: for SOD (U/gm Tissue): paw tissue 5 h after carrageenan
Procedure: as §1, §2

[4] = system: IL-6 production in TNF-a-stimulated MG-63 cells; conditions: cited from earlier work
[5] = 40 mg/kg, compared to the control group

For `NC(CO)C(O)c1ccc2c(c1)OCO2` (stereo not drawn) [Compound 1, 1,3-propanediol-2-amino-1-(3′,4′-methylenedioxyphenyl)], the GPx activity restored (GPx; [5]) was 73.17%, the “GPx (U/gm Tissue)” value (GPx; 20 mg/kg) was 77.65 ± 3.18 U/gm Tissue and the “GPx (U/gm Tissue)” value (GPx; 40 mg/kg) was 86.75 ± 6.01 U/gm Tissue. For the same compound, the “inhibitory activity against SARS-CoV-2 main protease” value [1] was “moderate inhibitory activities”, the “IL-1β level in paw tissue” value (IL-1β) was “significant reduction” and the IC50 [2] was 61.7 ± 3.4 µg/mL (≈ 292 µM). For the same compound, the “TNF-α level in paw tissue” value (TNF-α) was “significant reduction”, the “% Inhibition (%I) of paw oedema” value ([3]; 1 h, dose 20 mg/kg oral) was 10.25% and the “Increase in Paw Oedema” value ([3]; 1 h, dose 20 mg/kg oral) was 1.05 ± 0.20 mL. For the same compound, the “% Inhibition (%I) of paw oedema” value ([3]; 1 h, dose 40 mg/kg oral) was 16.32%, the “Increase in Paw Oedema” value ([3]; 1 h, dose 40 mg/kg oral) was 0.77 ± 0.28 mL and the “% Inhibition (%I) of paw oedema” value ([3]; 2 h, dose 20 mg/kg oral) was 23.51%. The “Increase in Paw Oedema” value ([3]; 2 h, dose 20 mg/kg oral) was 1.81 ± 0.44 mL, the “% Inhibition (%I) of paw oedema” value ([3]; 2 h, dose 40 mg/kg oral) was 27.07% and the “Increase in Paw Oedema” value ([3]; 2 h, dose 40 mg/kg oral) was 1.59 ± 0.22 mL. For the same compound, the “% Inhibition (%I) of paw oedema” value ([3]; 3 h, dose 20 mg/kg oral) was 23.77%, the “Increase in Paw Oedema” value ([3]; 3 h, dose 20 mg/kg oral) was 2.26 ± 0.28 mL and the “% Inhibition (%I) of paw oedema” value ([3]; 3 h, dose 40 mg/kg oral) was 26.1%. For the same compound, the “Increase in Paw Oedema” value ([3]; 3 h, dose 40 mg/kg oral) was 2.11 ± 0.29 mL, the “% Inhibition (%I) of paw oedema” value ([3]; 4 h, dose 20 mg/kg oral) was 45.36% and the “Increase in Paw Oedema” value ([3]; 4 h, dose 20 mg/kg oral) was 2.18 ± 0.74 mL. For the same compound, the “% Inhibition (%I) of paw oedema” value ([3]; 4 h, dose 40 mg/kg oral) was 55.39%, the “Increase in Paw Oedema” value ([3]; 4 h, dose 40 mg/kg oral) was 1.78 ± 0.45 mL and the “% Inhibition (%I) of paw oedema” value ([3]; 5 h, dose 20 mg/kg oral) was 57.63%. The “Increase in Paw Oedema” value ([3]; 5 h, dose 20 mg/kg oral) was 1.75 ± 0.46 mL, the “% Inhibition (%I) of paw oedema” value ([3]; 5 h, dose 40 mg/kg oral) was 63.92% and the “Increase in Paw Oedema” value ([3]; 5 h, dose 40 mg/kg oral) was 1.49 ± 0.49 mL. The zone of inhibition at 1000 µg/mL (S. aureus; Staphylococcus aureus, isolated compounds 1 mg/mL, read-out: S. aureus Diameter of Inhibition Zone (mm)) was 6.9 ± 0.1 mm, the “S. aureus %Activity Index” value (S. aureus; 1 mg/mL, relative to ciprofloxacin) was 28.9% and the SOD activity restored (SOD; [5]) was 71.43%. The “SOD (U/gm Tissue)” value (SOD; 20 mg/kg) was 118.35 ± 1.06 U/gm Tissue, the “SOD (U/gm Tissue)” value (SOD; 40 mg/kg) was 135.05 ± 11.67 U/gm Tissue and the “inhibition of IL-6 production” value [4] was “strong inhibitory”.
